In patent US20260217701A1, “SELECTIVE BET INHIBITORS AND USES THEREOF” (Tay Therapeutics Limited, priority 2022, published 2026):
Where “and” joins values, the source holds several entries; their conditions need not be identical. Equal values may be shown once.

Experiment: Dog PK study #3 (Compound A PO once daily 5 days, 5/10/20 mg/kg; PK, body weight, hematology)
Format: in vivo, beagle dogs
Parameters: Plasma Concentration: unit not given here
Experimental: For the third dog pharmacokinetic study, three solutions of different concentrations of Compound A were prepared in 5% DMSO/15% PEG-400/80% (10% VE-TPGS) as outlined in Table 2E. The Compound A solutions were administered to animals orally (PO) once daily over a five-day period. Body weight was recorded prior to dosing, and detailed clinical observations were made prior to dosing and throughout the study, as needed.
Animals were divided into Day 1 and Day 5 sample collection groups, with animals in the Day 1 collection group having blood samples taken prior to dosing and at 0.25, 0.5, 1, 2, 4, 8, and 24 hours after dosing on day 1. Animals in the Day 5 collection group having blood samples taken prior to dosing and at 0.25, 0.5, 1, 2, 4, 8, and 24 hours after dosing on day 5. Study groups are outlined in Table 3D.
Blood samples (~0.3 mL) were collected on day according to the following schedule (0.25, 0.5, 1, 2, 4, 8, and 24 h) after day 5 administration of Compound A by venipuncture of peripheral veins except for the dosing vein, and EDTA-K2 was used as anticoagulant. Within 30 minutes of collection, the samples were centrifuged at approximately 2000 times g-force for 10 minutes at 4° C. to obtain blood plasma. The plasma samples were immediately divided into two aliquots (~75 μL each), transferred to a cryogenic vial, and stored in a freezer at −75±15° C. prior to analysis.
The concentration of Compound A in the blood plasma was determined through LC-MS as previously described. Briefly, the experiments were conducted on a DMPK-LCMS-14-SMBA Triple Quad 6500 Plus instrument with an ACQUITY UPLC BEH C18 1.7 μm (50×2.1 mm) column. The matrix was male beagle dog plasma potassium (K2) EDTA A gradient of 95% water (0.1% formic acid and 2 mM HCOONH4)/95% acetonitrile (0.1% formic acid and 2 mM HCOONH4) was used as the mobile phase. The sample flow rate was 0.6 mL/min.
The samples were then vortex-mixed for 10 minutes at 800 rpm and centrifuged for 15 minutes at 3220×g at 4° C. 50 μL aliquots of supernatant were transferred to a clean 96-well plate and centrifuged for 5 minutes at 3220×g at 4° C. Samples were then injected into the LC/MS/MS system for quantitative analysis.
The gathered data were used for pharmacokinetic calculations using T1/2, CO, AUClast, AUCinf, MRTinf, Cl, Vss, and Number of Points for Regression as parameters.
The cell composition (hematology) of blood samples was analyzed at day 5. Analyses identified the total number of white blood cells, neutrophils, lymphocytes, monocytes, eosinophils, basophils, and platelets in collected samples.

[1] = Day 1, 20 mg/kg dose PO, individual animals
[2] = Day 1, Group 1, individual animals
[3] = Day 1, Group 2, individual animals
[4] = Day 1, Group 3, individual animals
[5] = Day 2, Group 1, individual animals
[6] = Day 2, Group 2, individual animals
[7] = Day 2, Group 3, individual animals
[8] = Day 3, Group 1, individual animals
[9] = Day 3, Group 2, individual animals
[10] = Day 3, Group 3, individual animals
[11] = Day 4, Group 1, individual animals
[12] = Day 4, Group 2, individual animals
[13] = Day 4, Group 3, individual animals
[14] = Day 5, 5 mg/kg dose PO, individual animals

SMILES: Cn1cc(-c2ccccc2)c(-c2cn(C)c(=O)c3[nH]c(-c4cnn(C(F)(F)F)c4)cc23)cc1=O [Compound A, 6-methyl-4-(1-methyl-2-oxo-5-phenyl-1,2-dihydropyridin-4-yl)-2-(1-(trifluoromethyl)-1H-pyrazol-4-yl)-1,6-dihydro-7H-pyrrolo[2,3-c]pyridin-7-one]
- Cmax [1]: 6000 ng/mL
- MRT0-inf [1]: 18.1 h
- MRT0-last [1]: 10.1 h
- Tlast [1]: 24.0 h
- T½ [1]: 5.64 h and 11.7 h
- Vz_F [1]: 3.09 L/kg and 2.89 L/kg
- AUC0-last (Day 1, 20 mg/kg dose PO, mean): 67852 ng·h/mL
- AUCExtra (Day 1, 20 mg/kg dose PO, mean): 16.1%
- AUMCExtra (Day 1, 20 mg/kg dose PO, mean): 39.6%
- Cl_F (Day 1, 20 mg/kg dose PO, mean): 4.59 mL/min/kg
- Tlast (Day 1, 20 mg/kg dose PO, mean): 24.0 h
- Vz_F (Day 1, 20 mg/kg dose PO, mean): 2.99 L/kg
- Animal body weight [2]: 8.38 kg and 8.88 kg
- Clinical Observation [2]: None
- Animal Body Weight, Mean (Day 1, Group 1, mean): 8.63 kg
- Animal body weight [3]: 8.36 kg and 9.37 kg
- Clinical Observation [3]: None
- Animal Body Weight, Mean (Day 1, Group 2, mean): 8.87 kg
- Animal body weight [4]: 9.24 kg and 8.79 kg
- Clinical Observation [4]: None
- Animal Body Weight, Mean (Day 1, Group 3, mean): 9.02 kg
- Animal body weight [5]: 8.44 kg and 9.33 kg
- Clinical Observation [5]: None
- Animal Body Weight, Mean (Day 2, Group 1, mean): 8.89 kg
- Animal body weight [6]: 9.63 kg and 8.65 kg
- Clinical Observation [6]: None
- Animal Body Weight, Mean (Day 2, Group 2, mean): 9.14 kg
- Animal body weight [7]: 9.44 kg and 9.25 kg
- Clinical Observation [7]: None
- Animal Body Weight, Mean (Day 2, Group 3, mean): 9.35 kg
- Animal body weight [8]: 8.45 kg and 9.29 kg
- Clinical Observation [8]: None
- Animal Body Weight, Mean (Day 3, Group 1, mean): 8.87 kg
- Animal body weight [9]: 9.5 kg and 8.69 kg
- Clinical Observation [9]: None
- Animal Body Weight, Mean (Day 3, Group 2, mean): 9.10 kg
- Animal body weight [10]: 9.32 kg and 8.96 kg
- Clinical Observation [10]: None
- Animal Body Weight, Mean (Day 3, Group 3, mean): 9.14 kg
- Animal body weight [11]: 8.45 kg and 9.29 kg
- Clinical Observation [11]: None
- Animal Body Weight, Mean (Day 4, Group 1, mean): 8.87 kg
- Animal body weight [12]: 9.43 kg and 8.6 kg
- Clinical Observation [12]: None
- Animal Body Weight, Mean (Day 4, Group 2, mean): 9.02 kg
- Animal body weight [13]: 9.13 kg and 8.6 kg
- Clinical Observation [13]: None
- Animal Body Weight, Mean (Day 4, Group 3, mean): 8.87 kg
- Plasma Concentration (Day 5, 5 mg/kg dose PO, time 1, individual animals): 1120 and 910
- Plasma Concentration (Day 5, 5 mg/kg dose PO, time 1, mean): 1015
- Plasma Concentration (Day 5, 5 mg/kg dose PO, time 2, individual animals): 1270 and 1040
- Plasma Concentration (Day 5, 5 mg/kg dose PO, time 2, mean): 1155
- Plasma Concentration (Day 5, 5 mg/kg dose PO, time 4, individual animals): 1180 and 878
- Plasma Concentration (Day 5, 5 mg/kg dose PO, time 4, mean): 1029
- Plasma Concentration (Day 5, 5 mg/kg dose PO, time 8, individual animals): 823 and 650
- Plasma Concentration (Day 5, 5 mg/kg dose PO, time 8, mean): 737
- Plasma Concentration (Day 5, 5 mg/kg dose PO, time 24, individual animals): 400
- AUC0-last [14]: 11297 ng·h/mL
- AUC(0-inf) [14]: 25554 ng·h/mL and 12279 ng·h/mL
- AUCExtra [14]: 30.4% and 8.00%
- AUMCExtra [14]: 65.9% and 26.4%
- Cl_F [14]: 3.26 mL/min/kg and 6.79 mL/min/kg
- Cmax [14]: 1040 ng/mL
- MRT0-last [14]: 8.08 h
- Tlast [14]: 24.0 h
- T½ [14]: 13.5 h and 6.42 h
- Vz_F [14]: 3.82 L/kg and 3.77 L/kg
- AUC0-last (Day 5, 5 mg/kg dose PO, mean): 14544 ng·h/mL
- AUCExtra (Day 5, 5 mg/kg dose PO, mean): 19.2%
- AUMCExtra (Day 5, 5 mg/kg dose PO, mean): 46.2%
- Cl_F (Day 5, 5 mg/kg dose PO, mean): 5.02 mL/min/kg
- Tlast (Day 5, 5 mg/kg dose PO, mean): 24.0 h
- Vz_F (Day 5, 5 mg/kg dose PO, mean): 3.79 L/kg
- Basophils (Day 5, 5 mg/kg/day (mean), range 0.00-0.19): 0.08 10^3/μL
- Eosinophils (Day 5, 5 mg/kg/day (mean), range 0.00-1.24): 0.38 10^3/μL
- Monocytes (Day 5, 5 mg/kg/day (mean), range 0.11-1.08): 0.31 10^3/μL
- Lymphocytes (Day 5, 5 mg/kg/day (mean), range 1.42-3.76): 2.72 10^3/μL
